Results as given in patent US10792289B2 (Horizon Orphan LLC, priority 2009, dated 2020).

System: stable CF patients
Test: Phase 2 study: CFQ-R questionnaire
Type: in vivo, human
Protocol: The following dosage regimens (as nebulizer loaded doses) were evaluated: 120 mg QD (daily); 240 mg QD (daily); and 240 mg BID (twice daily).
Patients were assessed on Day 1, 7, 14, and 28, and then up to 28 days after completion of study drug, namely, Days 42 and 56. The end of the study was defined as the last visit of the last patient.
Efficacy was evaluated by microbiologic assessment of sputum samples, time to need for anti-pseudomonal antimicrobials, the Cystic Fibrosis Questionaire-Revised (CFQ-R), and pulmonary function tests. […] Pair-wise comparisons between all the treatment arms were conducted as secondary analyses.
Patients completed the CFQ-R questionnaire with domains that included: respiratory, body image, digestion, eating, emotion, health perception, physical, role/school, social, treatment burden, vitality, and weight.

[1] = EE population, Combined 240 mg QD and BID

C[C@H]1COc2c(N3CCN(C)CC3)c(F)cc3c(=O)c(C(=O)O)cn1c23 [Levofloxacin, levofloxacin]
Respiratory domain of CFQ-R, Change from Baseline to Day 14, Mean (EE population, 120 mg QD): 4.3 | Respiratory domain of CFQ-R, Change from Baseline to Day 14, Median (EE population, 120 mg QD): 5.5 | Respiratory domain of CFQ-R, Change from Baseline to Day 28, Mean (EE population, 120 mg QD): 1.6 | Respiratory domain of CFQ-R, Change from Baseline to Day 28, Median (EE population, 120 mg QD): 0.0 | Respiratory domain of CFQ-R, Day 1, Mean (EE population, 120 mg QD): 63.5 | Respiratory domain of CFQ-R, Day 1, Median (EE population, 120 mg QD): 66.7 | Respiratory domain of CFQ-R, Day 14, Mean (EE population, 120 mg QD): 67.8 | Respiratory domain of CFQ-R, Day 14, Median (EE population, 120 mg QD): 66.7 | Respiratory domain of CFQ-R, Day 28, Mean (EE population, 120 mg QD): 65.1 | Respiratory domain of CFQ-R, Day 28, Median (EE population, 120 mg QD): 66.7 | Respiratory domain of CFQ-R, Change from Baseline to Day 14, Mean (EE population, 240 mg BID): 8.5 | Respiratory domain of CFQ-R, Change from Baseline to Day 14, Median (EE population, 240 mg BID): 5.6 | Respiratory domain of CFQ-R, Change from Baseline to Day 28, Mean (EE population, 240 mg BID): 5.2 | Respiratory domain of CFQ-R, Change from Baseline to Day 28, Median (EE population, 240 mg BID): 5.5 | Respiratory domain of CFQ-R, Day 1, Mean (EE population, 240 mg BID): 60.3 | Respiratory domain of CFQ-R, Day 1, Median (EE population, 240 mg BID): 61.1 | Respiratory domain of CFQ-R, Day 14, Mean (EE population, 240 mg BID): 68.8 | Respiratory domain of CFQ-R, Day 14, Median (EE population, 240 mg BID): 72.2 | Respiratory domain of CFQ-R, Day 28, Mean (EE population, 240 mg BID): 66.0 | Respiratory domain of CFQ-R, Day 28, Median (EE population, 240 mg BID): 72.2 | Respiratory domain of CFQ-R, Change from Baseline to Day 14, Mean (EE population, 240 mg QD): 2.1 | Respiratory domain of CFQ-R, Change from Baseline to Day 14, Median (EE population, 240 mg QD): 0.0 | Respiratory domain of CFQ-R, Change from Baseline to Day 28, Mean (EE population, 240 mg QD): 1.0 | Respiratory domain of CFQ-R, Change from Baseline to Day 28, Median (EE population, 240 mg QD): 0.0 | Respiratory domain of CFQ-R, Day 1, Mean (EE population, 240 mg QD): 60.8 | Respiratory domain of CFQ-R, Day 1, Median (EE population, 240 mg QD): 61.1 | Respiratory domain of CFQ-R, Day 14, Mean (EE population, 240 mg QD): 63.2 | Respiratory domain of CFQ-R, Day 14, Median (EE population, 240 mg QD): 66.7 | Respiratory domain of CFQ-R, Day 28, Mean (EE population, 240 mg QD): 61.7 | Respiratory domain of CFQ-R, Day 28, Median (EE population, 240 mg QD): 66.7 | Respiratory domain of CFQ-R, Change from Baseline to Day 14, Mean [1]: 5.3 | Respiratory domain of CFQ-R, Change from Baseline to Day 14, Median [1]: 5.6 | Respiratory domain of CFQ-R, Change from Baseline to Day 28, Mean [1]: 3.0 | Respiratory domain of CFQ-R, Change from Baseline to Day 28, Median [1]: 0.0 | Respiratory domain of CFQ-R, Day 1, Mean [1]: 60.5 | Respiratory domain of CFQ-R, Day 1, Median [1]: 61.1 | Respiratory domain of CFQ-R, Day 14, Mean [1]: 66.0 | Respiratory domain of CFQ-R, Day 14, Median [1]: 66.7 | Respiratory domain of CFQ-R, Day 28, Mean [1]: 63.8 | Respiratory domain of CFQ-R, Day 28, Median [1]: 66.7 | CFQ-R respiratory, mean change from baseline (EE, 120 mg QD, Baseline to Day 28): 1.0 units | Respiratory domain of CFQ-R, Change from Baseline to Day 14, Mean (MITT population, 120 mg QD): 4.5 | Respiratory domain of CFQ-R, Change from Baseline to Day 14, Median (MITT population, 120 mg QD): 5.5 | Respiratory domain of CFQ-R, Change from Baseline to Day 28, Mean (MITT population, 120 mg QD): 2.0 | Respiratory domain of CFQ-R, Change from Baseline to Day 28, Median (MITT population, 120 mg QD): 0.0 | Respiratory domain of CFQ-R, Day 1, Mean (MITT population, 120 mg QD): 62.3 | Respiratory domain of CFQ-R, Day 1, Median (MITT population, 120 mg QD): 61.1 | Respiratory domain of CFQ-R, Day 14, Mean (MITT population, 120 mg QD): 67.1 | Respiratory domain of CFQ-R, Day 14, Median (MITT population, 120 mg QD): 66.7 | Respiratory domain of CFQ-R, Day 28, Mean (MITT population, 120 mg QD): 64.6 | Respiratory domain of CFQ-R, Day 28, Median (MITT population, 120 mg QD): 66.7 | Respiratory domain of CFQ-R, Change from Baseline to Day 14, Mean (MITT population, 240 mg BID): 7.5 | Respiratory domain of CFQ-R, Change from Baseline to Day 14, Median (MITT population, 240 mg BID): 5.6 | Respiratory domain of CFQ-R, Change from Baseline to Day 28, Mean (MITT population, 240 mg BID): 3.0 | Respiratory domain of CFQ-R, Change from Baseline to Day 28, Median (MITT population, 240 mg BID): 0.0 | Respiratory domain of CFQ-R, Day 1, Mean (MITT population, 240 mg BID): 60.5 | Respiratory domain of CFQ-R, Day 1, Median (MITT population, 240 mg BID): 61.1 | Respiratory domain of CFQ-R, Day 14, Mean (MITT population, 240 mg BID): 68.4 | Respiratory domain of CFQ-R, Day 14, Median (MITT population, 240 mg BID): 72.2 | Respiratory domain of CFQ-R, Day 28, Mean (MITT population, 240 mg BID): 64.4 | Respiratory domain of CFQ-R, Day 28, Median (MITT population, 240 mg BID): 72.2
